Patent US20030055065A1, “Tricyclic amide and urea compounds useful for inhibition of G-protein function and for treatment of proliferative diseases” (priority 1993, published 2003)
Where “and” joins values, the source holds several entries; their conditions need not be identical. Identical values can stand only once.

System: Ras-CVLS processing in COS monkey kidney cells
Test: COS cell assay: Ras-CVLS processing (Western blot)
Format: cell-based
Conditions: COS cells, (5) μM
Procedure: 2. […] Effect of farnesyl protein transferase inhibitors on Ras processing and on disordered cell growth induced by transforming Ras. COS monkey kidney cells were transfected by electroporation with the plasmid pSV-SPORT (Gibco/BRL) containing a cDNA insert encoding either Ras-CVLS or Ras-CVLL, leading to transient overexpression of a Ras substrate for either farnesyl protein transferase or geranylgeranyl protein transferase I, respectively (see above). […] After 24 hours, media was removed and fresh media containing the appropriate drugs was re-added. 48 hours after electroporation cells were examined under the microscope to monitor disordered cell growth induced by transforming Ras. Cells expressing transforming Ras become more rounded and refractile and overgrow the monolayer, reminiscent of the transformed phenotype. […] Cells were lysed by homogenization and cell debris was removed by centrifugation at 2000×g for 10 min. Cellular protein was precipitated by addition of ice-cold trichloroacetic acid and redissolved in 100 μl of SDS-electrophoresis sample buffer. […] Proteins resolved on the gels were electroblotted onto nitrocellulose membranes for immunodetection. […] E., et al., (1982), Monoclonal antibodies to the p21 products of the transforming gene of Harvey murine sarcome virus and of the cellular ras gene family, J. Virol. 43: 294-304), in PBS containing 1% fetal calf serum for one hour at room temperature. After washing, membranes were incubated for one hour at room temperature with a 1:5000 dilution of secondary antibody, rabbit anti-rat IgG conjugated to horseradish peroxidase, in PBS containing 1% fetal calf serum.

SMILES	Inhibition of Ras Processing at the concentration in parentheses
CN1CCC(CC(=O)N2CCC(=C3c4ccc(Cl)cc4CCc4cc(Br)cnc43)CC2)CC1 [Example 400-H]	100 (5)
CN1CCCC(CC(=O)N2CCC(=C3c4ccc(Cl)cc4CCc4cc(Br)cnc43)CC2)C1 (centres unmarked) [Example 400-K]	100 (5)

Same assay, conditions: COS cells; read-out: Inhibition of Ras Processing IC50

SMILES	IC50
O=C(Cc1ccc(Br)cc1)N1CCN(C2c3ccc(Cl)cc3CCc3cccnc32)CC1 (centres unmarked) [Example 77]	9.2 µM
O=C(Cc1cc[n+]([O-])cc1)N1CCC(=C2c3ccc(Cl)cc3CCc3cccnc32)CC1 [227 (5.102)]	1 µM

Same assay, conditions: Primates, COS, COS cells; read-out: Inhibition of Ras Processing IC50

SMILES	IC50
O=C(Nc1ccncc1)N1CCC(=C2c3ccc(Cl)cc3CCc3cccnc32)CC1 [Example 291]	3.6 µM
CC(C)(C(=O)N1CCC(=C2c3ccc(Cl)cc3CCc3cccnc32)CC1)c1ccccc1 [Example 289]	> 10 µM
CO[C@](C(=O)N1CCC(=C2c3ccc(Cl)cc3CCc3cccnc32)CC1)(c1ccccc1)C(F)(F)F [Example 287]	> 10 µM
CN1CCC(CC(=O)N2CCC(=C3c4ccc(Cl)cc4CCc4cc(Br)cnc43)CC2)CC1 [Example 400-H]	2.5 µM
CN1CCCC(CC(=O)N2CCC(=C3c4ccc(Cl)cc4CCc4cc(Br)cnc43)CC2)C1 (centres unmarked) [Example 400-K]	2.2 µM

Target: T1, farnesyl protein transferase (FPT), partially purified from rat brain (Rattus norvegicus, UniProt Q02293+Q04631)
T1 construct: were partially purified from rat brain by ammonium sulfate fractionation followed by Q-Sepharose
Test: Inhibition of farnesyl protein transferase (transfer of [3H]farnesyl to Ras-CVLS)
Format: biochemical
Conditions: Ras-CVLS farnesylation, partially purified rat brain FPT; read-out: FPT IC50
Summary of the method: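 Partially purified farnesyl protein transferase with His6-tagged val12-Ha-Ras-CVLS substrate and [3H]farnesyl pyrophosphate, 30 min at room temperature. Stopped with SDS/TCA, precipitated Ras collected on GF/C filters; percent inhibition relative to DMSO vehicle control.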

T1 sequence (Q02293 whole entry, one chain of several): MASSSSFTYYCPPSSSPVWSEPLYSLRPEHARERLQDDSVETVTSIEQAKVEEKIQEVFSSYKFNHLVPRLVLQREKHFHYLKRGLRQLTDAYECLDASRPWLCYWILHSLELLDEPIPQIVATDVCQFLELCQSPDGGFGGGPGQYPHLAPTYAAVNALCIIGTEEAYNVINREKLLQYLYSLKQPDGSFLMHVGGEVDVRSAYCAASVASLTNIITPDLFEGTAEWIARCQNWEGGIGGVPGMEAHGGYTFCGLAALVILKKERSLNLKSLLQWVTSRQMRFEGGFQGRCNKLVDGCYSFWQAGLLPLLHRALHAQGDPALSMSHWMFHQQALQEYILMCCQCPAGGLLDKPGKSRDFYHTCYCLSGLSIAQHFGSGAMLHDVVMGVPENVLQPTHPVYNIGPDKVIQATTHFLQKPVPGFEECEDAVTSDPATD

SMILES	IC50
O=C(Nc1ccncc1)N1CCC(=C2c3ccc(Cl)cc3CCc3cccnc32)CC1 [Example 291]	870 nM
CC(C)(C(=O)N1CCC(=C2c3ccc(Cl)cc3CCc3cccnc32)CC1)c1ccccc1 [Example 289]	1440 nM and 1400 nM
CO[C@](C(=O)N1CCC(=C2c3ccc(Cl)cc3CCc3cccnc32)CC1)(c1ccccc1)C(F)(F)F [Example 287]	720 nM and 5020 nM
CN1CCC(CC(=O)N2CCC(=C3c4ccc(Cl)cc4CCc4cc(Br)cnc43)CC2)CC1 [Example 400-H]	240 nM
CN1CCCC(CC(=O)N2CCC(=C3c4ccc(Cl)cc4CCc4cc(Br)cnc43)CC2)C1 (centres unmarked) [Example 400-K]	210 nM

Same assay, conditions: enzyme inhibition; read-out: FPT IC50

SMILES	IC50
CN1CCC(CC(=O)N2CCC(=C3c4ccc(Cl)cc4CCc4cc(Br)cnc43)CC2)CC1 [Example 400-H]	240 nM
CN1CCCC(CC(=O)N2CCC(=C3c4ccc(Cl)cc4CCc4cc(Br)cnc43)CC2)C1 (centres unmarked) [Example 400-K]	210 nM

System: T24-BAG4 human bladder carcinoma cells expressing an activated H-ras gene
Test: Cell Mat Assay: tumor cell colony inhibition (tIC50)
Format: cell-based
Conditions: Homo sapiens, inhibition of tumor cell growth
Summary of the method: (§1)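 Serial compound dilutions added 24 h after planting T24-BAG4 cells onto a mat of normal cells, then 14 d colony growth; monolayers glutaraldehyde-fixed and tumor cells X-Gal stained. tIC50 and mIC50 from microscope counts of colonies, cells per colony and mat cell density.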

SMILES	IC50
O=C(Nc1ccncc1)N1CCC(=C2c3ccc(Cl)cc3CCc3cccnc32)CC1 [Example 291]	18 µM
CC(C)(C(=O)N1CCC(=C2c3ccc(Cl)cc3CCc3cccnc32)CC1)c1ccccc1 [Example 289]	12.5 µM

Same assay, conditions: inhibition of tumor cell growth

SMILES	IC50
CC(C)(C(=O)N1CCC(=C2c3ccc(Cl)cc3CCc3cccnc32)CC1)c1ccccc1 [Example 289]	18 µM
O=C(Cc1ccc(Br)cc1)N1CCN(C2c3ccc(Cl)cc3CCc3cccnc32)CC1 (centres unmarked) [Example 77]	> 50 µM
O=C(Cc1cc[n+]([O-])cc1)N1CCC(=C2c3ccc(Cl)cc3CCc3cccnc32)CC1 [227 (5.102)]	4 µM

Target: T2, geranylgeranyl protein transferase (GGPT) I (Rattus norvegicus, UniProt P53610+Q04631)
T2 construct: were partially purified from rat brain by ammonium sulfate fractionation followed by Q-Sepharose
Test: Inhibition of geranylgeranyl protein transferase I (Ras-CVLL as acceptor)
Format: biochemical
Conditions: (36) μM
Excerpt: 1. In vitro enzyme assays: Inhibition of farnesyl protein transferase and geranylgeranyl protein transferase.
Both farnesyl protein transferase (FPT) and geranylgeranyl protein transferase (GGPT) I were partially purified from rat brain by ammonium sulfate fractionation followed by Q-Sepharose (Pharmacia, Inc.) anion exchange chromatography essentially as described by Yokoyama et al (Yokoyama, K., et al., (1991), A protein geranylgeranyltransferase from bovine brain: Implications for protein prenylation specificity, Proc. Natl. Acad. Sci USA 88: 5302-5306, the disclosure of which is incorporated herein by reference thereto). Human farnesyl protein transferase was also expressed in E. coli, using cDNA clones encoding both the α and β subunits. The methods used were similar to those published (Omer, C. et al., (1993), Characterization of recombinant human farnesyl protein transferase: Cloning, expression, farnesyl diphosphate binding, and functional homology with yeast prenyl-protein transferases, Biochemistry 32:5167-5176). Human farnesyl protein transferase was partially-purified from the soluble protein fraction of E. coli as described above. […] Two forms of val^12-Ha-Ras protein were prepared as substrates for these enzymes, differing in their carboxy terminal sequence. One form terminated in cysteine-valine-leucine-serine (Ras-CVLS) the other in cystein-valine-leucine-leucine (Ras-CVLL). Ras-CVLS is a substrate for the farnesyl protein transferase while Ras-CVLL is a substrate for geranylgeranyl protein transferase I. The cDNAs encoding these proteins were constructed so that the proteins contain an amino-terminal extension of 6 histidine residues. Both proteins were expressed in Escherichia coli and purified using metal chelate affinity chromatography. The radiolabelled isoprenyl pyrophosphate substrates, [^3H]farnesyl pyrophosphate and [3H]geranylgeranyl pyrophosphate, were purchased from DuPont/New England Nuclear.
The geranylgeranyl protein transferase I assay was essentially identical to the farnesyl protein transferase assay described above, with two exceptions: [^3H]geranylgeranylpyrophosphate replaced farnesyl pyrophosphate as the isoprenoid donor and Ras-CVLL was the protein acceptor.

T2 sequence (P53610 whole entry, one chain of several): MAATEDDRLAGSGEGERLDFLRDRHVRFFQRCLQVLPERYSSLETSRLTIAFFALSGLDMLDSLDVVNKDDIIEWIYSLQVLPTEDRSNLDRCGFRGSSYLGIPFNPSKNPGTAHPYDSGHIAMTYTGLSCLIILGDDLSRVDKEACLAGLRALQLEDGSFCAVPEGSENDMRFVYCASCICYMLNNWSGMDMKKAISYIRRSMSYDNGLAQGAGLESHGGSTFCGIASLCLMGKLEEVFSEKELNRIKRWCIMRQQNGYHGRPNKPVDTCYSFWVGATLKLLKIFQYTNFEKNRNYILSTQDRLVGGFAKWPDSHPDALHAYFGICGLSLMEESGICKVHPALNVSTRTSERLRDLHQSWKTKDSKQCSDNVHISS

SMILES	GGPT inhibition at the concentration in parentheses
CN1CCC(CC(=O)N2CCC(=C3c4ccc(Cl)cc4CCc4cc(Br)cnc43)CC2)CC1 [Example 400-H]	0 (36)

Same assay, conditions: (37) μM

SMILES	GGPT inhibition at the concentration in parentheses
CN1CCCC(CC(=O)N2CCC(=C3c4ccc(Cl)cc4CCc4cc(Br)cnc43)CC2)C1 (centres unmarked) [Example 400-K]	0 (37)

Same assay, conditions: enzyme inhibition

SMILES	IC50
O=C(Nc1ccncc1)N1CCC(=C2c3ccc(Cl)cc3CCc3cccnc32)CC1 [Example 291]	> 46 µM
CC(C)(C(=O)N1CCC(=C2c3ccc(Cl)cc3CCc3cccnc32)CC1)c1ccccc1 [Example 289]	> 40 µM
CO[C@](C(=O)N1CCC(=C2c3ccc(Cl)cc3CCc3cccnc32)CC1)(c1ccccc1)C(F)(F)F [Example 287]	> 40 µM
CN1CCC(CC(=O)N2CCC(=C3c4ccc(Cl)cc4CCc4cc(Br)cnc43)CC2)CC1 [Example 400-H]	1000 µM
O=C(Cc1ccc(Br)cc1)N1CCN(C2c3ccc(Cl)cc3CCc3cccnc32)CC1 (centres unmarked) [Example 77]	> 39 µM
CN1CCCC(CC(=O)N2CCC(=C3c4ccc(Cl)cc4CCc4cc(Br)cnc43)CC2)C1 (centres unmarked) [Example 400-K]	1000 µM
O=C(Cc1cc[n+]([O-])cc1)N1CCC(=C2c3ccc(Cl)cc3CCc3cccnc32)CC1 [227 (5.102)]	> 41 µM

System: Normal human HEPM fibroblasts
Test: Cell Mat Assay: density of mat cells (mIC50)
Format: cell-based
Conditions: not given
Summary of the method: as §1

SMILES	IC50
O=C(Cc1ccc(Br)cc1)N1CCN(C2c3ccc(Cl)cc3CCc3cccnc32)CC1 (centres unmarked) [Example 77]	> 50 µM
O=C(Cc1cc[n+]([O-])cc1)N1CCC(=C2c3ccc(Cl)cc3CCc3cccnc32)CC1 [227 (5.102)]	> 50 µM

Same assay, conditions: Homo sapiens, Fibroblast

SMILES	IC50
O=C(Nc1ccncc1)N1CCC(=C2c3ccc(Cl)cc3CCc3cccnc32)CC1 [Example 291]	> 50 µM
CC(C)(C(=O)N1CCC(=C2c3ccc(Cl)cc3CCc3cccnc32)CC1)c1ccccc1 [Example 289]	> 50 µM
CO[C@](C(=O)N1CCC(=C2c3ccc(Cl)cc3CCc3cccnc32)CC1)(c1ccccc1)C(F)(F)F [Example 287]	> 50 µM
